Measured values taken from US12012373B2, “Cannabinoid derivatives” (CANOPY GROWTH CORPORATION, priority 2019, dated 2024).

Tests used:
[1] = target: T1, human CB2 receptor (Homo sapiens, UniProt P34972); assay: CB2 radioligand competitive binding assay ([3H]CP 55,940 displacement); details: for IC50: [3H]CP 55,940 displacement, CHO-K1 membranes expressing human CB2 receptor; for Selectivity CB2: fold difference in binding between CB1 and CB2, shown in the column of the receptor with higher affinity, 1.00 in both = about same affinity
T1 construct: membranes prepared in house
T1 sequence (P34972 whole entry): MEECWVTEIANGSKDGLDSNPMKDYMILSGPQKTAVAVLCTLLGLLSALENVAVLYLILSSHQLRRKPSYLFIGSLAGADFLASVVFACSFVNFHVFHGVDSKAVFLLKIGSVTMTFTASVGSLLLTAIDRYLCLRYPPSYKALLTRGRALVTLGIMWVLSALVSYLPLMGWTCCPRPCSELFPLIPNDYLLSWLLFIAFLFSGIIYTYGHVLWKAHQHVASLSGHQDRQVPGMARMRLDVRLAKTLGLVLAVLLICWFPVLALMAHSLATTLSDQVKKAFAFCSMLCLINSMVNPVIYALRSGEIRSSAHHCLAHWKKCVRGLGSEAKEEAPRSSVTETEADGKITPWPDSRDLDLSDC
Description: Compounds of the present disclosure were tested for CB1 receptor binding affinity and for CB2 receptor binding affinity. As used herein, “binding affinity” is represented by the IC50 value, which was experimentally determined as described herein. The lower the IC50 value the higher the binding affinity. A compound of the present disclosure may be said to have “binding selectivity” If it has a higher binding affinity for one receptor compared to the other.
The membranes were prepared from CHO-K1 (Chinese hamster ovary) cells stably transfected with the human CB2 receptor (Cat. #ES-111-C; Perkin Elmer, Boston, MA). The cells were grown adherently and maintained in Ham's F12 medium containing 10% fetal bovine serum (FBS), penicillin, streptomycin and geneticin (G418) at 37° C. in a humid atmosphere of 5% CO2 following the manufacturer's Instructions.
For membrane preparation the cells were washed with PBS and scraped off the plates in cold homogenization buffer (25 mM HEPES (pH 7.4), 2 mM EDTA) containing protease inhibitor cocktail (Sigma Cat. #P8340). The cell suspension was homogenized with a Pro-PK-01200D Polytron Homogenizer (Pro Scientific) and then centrifuged for 30 min at 120,000×g. The supernatant was discarded and the pellet was re-suspended in the homogenization buffer and stored at −80° C. until the time of use.
In this experiment, 3H radiolabeled CP 55,940, i.e. [3H]CP 55,940 (Perkin Elmer, Boston, MA), was used as a radioligand for the CB2 receptor to determine the binding affinity of compounds for the CB2 receptor (Scheme 8; above).
The competition binding experiments (single dose and dose-response) were performed by incubating 0.6 nM of [3H]CP55,940 (specific activity 101 Ci/mmol, Perkin Elmer) and different concentrations of compounds disclosed herein with membranes prepared as above from CHO-K1 cells expressing human CB2 receptor (1 μg of protein/well), 50 mM Tris-HCl (pH 7.4), 5 mM MgCl2, 1 mM CaCl2, and 2 mg/mL BSA.
For the single dose experiments, the compound stocks (usually 10 mM in DMSO) were diluted to working stocks in the binding buffer to give the final compound concentrations of 10 μM and 1 μM. For the dose-response experiments the test compounds were sequentially diluted to provide the desired concentration range for the IC50 determination. In each case the compounds were pre-incubated with the membrane for 20 min, before adding the radioligand.
After incubation with the radioligand for 60 min at 37° C., the incubation was terminated by rapid filtration of assay mixture through MultiScreen®HTS^+ 96-well filter plates (Millipore, Cat. #MSFCNXB), pre-soaked for 60 min with 50 mM Tris-HCl (pH 7.4) containing 0.33% polyethylenimine (PEI). The nonspecific binding (NSB) was determined in the presence of 10 μM unlabeled CP55,940. After drying the filter plate at 50° C. for at least 60 min, the filter-bound radioactivity was determined by scintillation spectrometry using the 1450 MicroBeta Plate Counter (Perkin Elmer, Boston, MA). From the dose-response experiments, the IC50 values were determined (see Table 1, CB2 IC50).

[2] = target: T2, human CB1 receptor (Homo sapiens, UniProt P21554); assay: biochemical; assay type: binding; design: membranes prepared in house; details: for Selectivity CB1: fold difference in binding between CB1 and CB2, shown in the column of the receptor with higher affinity, 1.00 in both = about same affinity
T2 sequence (P21554 whole entry): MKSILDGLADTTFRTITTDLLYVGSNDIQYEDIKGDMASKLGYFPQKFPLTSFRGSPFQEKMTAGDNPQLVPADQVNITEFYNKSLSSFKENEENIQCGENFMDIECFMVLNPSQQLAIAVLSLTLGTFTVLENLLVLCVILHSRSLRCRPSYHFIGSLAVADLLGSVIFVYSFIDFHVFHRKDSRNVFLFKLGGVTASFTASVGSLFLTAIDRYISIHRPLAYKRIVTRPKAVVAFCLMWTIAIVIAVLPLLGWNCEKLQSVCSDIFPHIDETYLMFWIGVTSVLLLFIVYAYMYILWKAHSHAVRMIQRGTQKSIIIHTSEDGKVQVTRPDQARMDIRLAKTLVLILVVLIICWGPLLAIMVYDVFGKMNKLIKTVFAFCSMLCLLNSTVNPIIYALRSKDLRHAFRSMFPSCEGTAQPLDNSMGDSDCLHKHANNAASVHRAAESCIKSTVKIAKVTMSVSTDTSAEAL

[3] = target: T2, human CB1 receptor; assay: PathHunter β-Arrestin functional assay, CB1 receptor, antagonist mode; assay type: cell-based; design: membranes prepared in house; details: for inhibition at 4 µM: read-out: relative inhibition in comparison to rimonabant

Structure (SMILES)	IC50 [1]	Selectivity CB2 [1]	IC50 [2]	IC50 [3]	inhibition at 4 µM [3]	Selectivity CB1 [2]
CCCCCc1cc(O)c(C2C=C(C)CCC2)c(O)c1S(=O)(=O)NCc1ccccc1 (stereo not shown) [Compound 25c, N-benzyl-2,6-dihydroxy-5′-methyl-4-pentyl-1′,2′,3′,4′-tetrahydro-[1,1′-biphenyl]-3-sulfonamide]	100 to 990 nM	1.50 fold	100 to 990 nM	–	–	–
CCCCCc1cc(O)c(C2C=C(C)CCC2)c(O)c1S(=O)(=O)NC1CC1 (stereo not shown) [Compound 22c, N-cyclopropyl-2,6-dihydroxy-5′-methyl-4-pentyl-1′,2′,3′,4′-tetrahydro-[1,1′-biphenyl]-3-sulfonamide]	100 to 990 nM	11.59 fold	1000 to 5000 nM	775 to 3000 nM	11 to 79%	–
C=C(C)[C@@H]1CCC(C)=C[C@H]1c1c(O)cc(CCCCC)c(S(=O)(=O)OCC(F)(F)F)c1O [Compound 64d, 2,2,2-trifluoroethyl-2,6-dihydroxy-5′-methyl-4-pentyl-2′-(prop-1-en-2-yl)-1′,2′,3′,4′-tetrahydro-[1,1′-biphenyl]-3-sulfonate]	100 to 990 nM	–	100 to 990 nM	–	–	2.00 fold
C=C(C)[C@@H]1CCC(C)=C[C@H]1c1c(O)cc(CCC)c(S(=O)(=O)NC(C)C)c1O [Compound 68d, 2,6-dihydroxy-N-isopropyl-5′-methyl-2′-(prop-1-en-2-yl)-4-propyl-1′,2′,3′,4′-tetrahydro-[1,1′-biphenyl]-3-sulfonamide]	1000 to 5000 nM	1.74 fold	1000 to 5000 nM	–	–	–
C=C(C)[C@@H]1CCC(C)=C[C@H]1c1c(O)cc(CCCCC)c(S(=O)(=O)N(CCO)CCBr)c1O [Compound 63d, N-(2-bromoethyl)-2,6-dihydroxy-N-(2-hydroxyethyl)-5′-methyl-4-pentyl-2′-(prop-1-en-2-yl)-1′,2′,3′,4′-tetrahydro-[1,1′-biphenyl]-3-sulfonamide]	1000 to 5000 nM	1.00 fold	1000 to 5000 nM	–	–	1.00 fold
C=C(C)[C@@H]1CCC(C)=C[C@H]1c1c(O)cc(CCCCC)c(S(=O)(=O)N2CCOCC2)c1O [Compound 28d, 5′-Methyl-3-(Morpholinosulfonyl)-4-Pentyl-2′-(Prop-1-En-2-Yl)-1′,2′,3′,4′-Tetrahydro-[1,1′-Biphenyl]-2,6-Diol]	< 100 nM	8.20 fold	100 to 990 nM	–	–	–
CCCCCc1cc(O)c(C2C=C(C)CCC2)c(O)c1S(=O)(=O)N1CCOCC1 (stereo not shown) [Compound 28c, 5′-methyl-3-(morpholinosulfonyl)-4-pentyl-1′,2′,3′,4′-tetrahydro-[1,1′-biphenyl]-2,6-diol]	100 to 990 nM	–	–	775 to 3000 nM	11 to 79%	–
C=C(C)[C@@H]1CCC(C)=C[C@H]1c1c(O)cc(CCCCC)c(S(=O)(=O)NCc2ccccc2)c1O [Compound 25d, N-benzyl-2,6-dihydroxy-5′-methyl-4-pentyl-2′-(prop-1-en-2-yl)-1′,2′,3′,4′-tetrahydro-[1,1′-biphenyl]-3-sulfonamide]	1000 to 5000 nM	2.00 fold	1000 to 5000 nM	–	–	–
C=C(C)[C@@H]1CCC(C)=C[C@H]1c1c(O)cc(CCCCC)c(S(=O)(=O)Nc2ccccc2)c1O [Compound 24d, 2,6-dihydroxy-5′-methyl-4-pentyl-N-phenyl-2′-(prop-1-en-2-yl)-1′,2′,3′,4′-tetrahydro-[1,1′-biphenyl]-3-sulfonamide]	1000 to 5000 nM	1.67 fold	1000 to 5000 nM	–	–	–
CCCCCc1cc(O)c(C2C=C(C)CCC2)c(O)c1S(=O)(=O)Nc1ccccc1 (stereo not shown) [Compound 24c, 2,6-dihydroxy-5′-methyl-4-pentyl-N-phenyl-1′,2′,3′,4′-tetrahydro-[1,1′-biphenyl]-3-sulfonamide]	100 to 990 nM	3.60 fold	1000 to 5000 nM	–	–	–
C=C(C)[C@@H]1CCC(C)=C[C@H]1c1c(O)cc(CCC)c(S(=O)(=O)N(C)C)c1O [Compound 67d, 2,6-dihydroxy-N,N,5′-trimethyl-2′-(prop-1-en-2-yl)-4-propyl-1′,2′,3′,4′-tetrahydro-[1,1′-biphenyl]-3-sulfonamide]	1000 to 5000 nM	3.08 fold	1000 to 5000 nM	–	–	–
C=C(C)[C@@H]1CCC(C)=C[C@H]1c1c(O)cc(CCCCC)c(S(=O)(=O)N(CC)CC)c1O [Compound 62d, N,N-Diethyl-2,6-Dihydroxy-5′-Methyl-4-Pentyl-2′-(Prop-1-En-2-Yl)-1′,2′,3′,4′-Tetrahydro-[1,1′-Biphenyl]-3-Sulfonamide]	100 to 990 nM	6.29 fold	100 to 990 nM	775 to 3000 nM	11 to 79%	–
C=C(C)[C@@H]1CCC(C)=C[C@H]1c1c(O)cc(CCCCC)c(S(=O)(=O)N(C)C)c1O (stereo in doubt) [Compound 21d, 2,6-dihydroxy-N,N,5′-trimethyl-4-pentyl-2′-(prop-1-en-2-yl)-1′,2′,3′,4′-tetrahydro-[1,1′-biphenyl]-3-sulfonamide]	100 to 990 nM	1.41 fold	100 to 990 nM	–	–	–
C=C(C)[C@@H]1CCC(C)=C[C@H]1c1c(O)cc(CCCCC)c(S(=O)(=O)NC2CC2)c1O [Compound 22d, N-Cyclopropyl-2,6-Dihydroxy-5′-Methyl-4-Pentyl-2′-(Prop-1-En-2-Yl)-1′,2′,3′,4′-Tetrahydro-[1,1′-Biphenyl]-3-Sulfonamide]	1000 to 5000 nM	1.52 fold	1000 to 5000 nM	775 to 3000 nM	11 to 79%	–
CCCCCc1cc(O)c(C2C=C(C)CCC2)c(O)c1C(=O)NS(=O)(=O)c1cccnc1 (stereo not shown) [Compound 71c, 2,6-dihydroxy-5′-methyl-4-pentyl-N-(pyridin-3-ylsulfonyl)-1′,2′,3′,4′-tetrahydro-[1,1′-biphenyl]-3-carboxamide]	100 to 990 nM	–	100 to 990 nM	775 to 3000 nM	11 to 79%	1.14 fold
C=C(C)[C@@H]1CCC(C)=C[C@H]1c1c(O)cc(CCCCC)c(S(C)(=O)=O)c1O [Compound 3d, 5′-methyl-3-(methylsulfonyl)-4-pentyl-2′-(prop-1-en-2-yl)-1′,2′,3′,4′-tetrahydro-[1,1′-biphenyl]-2,6-diol]	1000 to 5000 nM	2.00 fold	1000 to 5000 nM	–	–	–
CCCCCc1cc(O)c(C2C=C(C)CCC2)c(O)c1S(N)(=O)=O (stereo not shown) [Compound 19c, 2,6-dihydroxy-5′-methyl-4-pentyl-1′,2′,3′,4′-tetrahydro-[1,1′-biphenyl]-3-sulfonamide]	1000 to 5000 nM	1.00 fold	1000 to 5000 nM	–	–	1.00 fold
C=C(C)[C@@H]1CCC(C)=C[C@H]1c1c(O)cc(CCCCC)c(S(=O)(=O)NC(C)C)c1O (stereo in doubt) [Compound 23d, 2,6-dihydroxy-N-isopropyl-5′-methyl-4-pentyl-2′-(prop-1-en-2-yl)-1′,2′,3′,4′-tetrahydro-[1,1′-biphenyl]-3-sulfonamide]	100 to 990 nM	2.56 fold	1000 to 5000 nM	–	–	–
